Here are results for five compounds from patent US20060094013A1, “Salt-inducible kinases 2 and use thereof” (priority 2002, published 2006).

Test [1] concerns the target T1, mouse SIK2 (Mus musculus, UniProt Q8CFH6).
T1 construct: the full-length cDNA in the protein translation region of SIK2 was amplified by the RT-PCR method; made in house; host or cells: COS-7
The test is described as follows: Protein-phosphorylating activity of purified GST-mSIK2 (auto-phosphorylation and GST-Syntide 2 phosphorylation, 32P, SDS-PAGE). The test is classed as biochemical. How it is done: The obtained GST-mSIK2 was mixed with 1 μl of GST-Syntide 2 (Lin et al., as describe above) and [^32P]-[…] (37 kBq; manufactured by ICN) in the presence of a 50 mM Tris-HCl buffer solution (pH 8.0) and 10 mM MnCl2 (20 μl in total). The mixture was allowed to react at 30° C. for 1 hour. The reaction was then terminated by adding 10 μl of an SDS-sample buffer and heating at 100° C. for 5 minutes. 10 μl of the reacted sample was separated using 15% SDS-PAGE, and the SDS-PAGE gel was then dried. The intake of ^32P was detected by exposing it to light for 30 minutes, using an X-ray film (MS-film; manufactured by Kodac). […] For comparison purpose, GST-rat SIK1 and GST-rat SIK1 (K56M) were subjected to the same experiment. Consequently, the same results were obtained.
A GST-mSIK2 protein that was allowed to express in COS-7 cells and then purified was mixed with DMSO solutions containing 5% DMSO and 5% each of 1, 10, 100 nM staurosporine (Sigma) ina reaction system in the test tube used in Example 3. Thereafter, phosphorylating activity was detected by the SDS-PAGE method, so as to evaluate the inhibition of enzyme activity of mouse SIK2 by staurosporine. […] The auto-phosphorylating activity and GST-Syntide 2-phosphorylating activity of GST-mSIK2 were approximately 30% inhibited even by the single use of DMSO. […] It was inhibited by 1 nM staurosporine until the residual activity became approximately 20%. By 10 nM and 100 nM staurosporines, it was almost 100% inhibited.

Test [2] relates to SIK. The test is described as follows: Immunostaining of dexamethasone-induced SIK in 3T3-L1 cells with antibodies specific for the phosphorylation state. The test is classed as cell-based. How it is done: 3T3-L1 cells were inoculated on 96-well plates, and the cells were cultured until they became confluent. The medium placed in such a plate was DMEM/10% FCS. The culture was carried out at 37° C. in 5% CO2. Thereafter, dexamethasone was added to each of the plates, thereby resulting in a concentration of dexamethasone of 1 μM, so that SIK was induced. After 1 hour had passed after the induction, an SIK inhibitor, staurosporine, was added to the plates, thereby resulting in concentrations of 10, 100, and 1,000 nM. Thereafter, the culture was further carried out for 1 hour. […] Subsequently, the cells were added to PBS containing 4% paraformaldehyde, and the mixture was then left at room temperature for 15 minutes, so that the cells were immobilized. Thereafter, the cells were washed with PBS 4 times, and they were then allowed to react with a blocking solution obtained by dissolving 1% skimmed milk in TBST (TBS containing 0.1% Tween 20). Subsequently, 100 μl of antiserum (500 times diluted) containing an antibody binding to SIK1 wherein serine at position 577 is phosphorylated, an antibody binding to SIK1 wherein threonine at position 182 and serine at position 186 are phosphorylated, an anti-SIK antibody, or an antibody binding to SIK1 wherein serine at position 577 is not phosphorylated, was added to the same above blocking solution. The obtained mixture was reacted overnight. After completion of the reaction overnight, an unreacted antibody portion was eliminated by washing with PBS 4 times. A solution obtained by 1,000 times diluting an HRP-labeled anti-rabbit IgG secondary antibody was added to a reaction solution obtained by dissolving 1% skimmed milk in TBS, and the mixture was then reacted at room temperature for 2 hours. Thereafter, the resultant product was washed with PBS 4 times. The antigen-antibody reaction was visualized using Konica Immuno Stain HRP reagent (manufactured by Konica).

The subject of test [3] is CRE. The test is described as follows: CRE luciferase reporter assay in precursor fat cells 3T3-L1. It counts as cell-based. To be noted: 50 ng/ml; SIK2 not highly expressed. As for the experimental part:
For the purpose of detecting the CRE transcription-suppressing activity of SIK2, using Lipofectoamin 200 reagent (2 μl; manufactured by Invitrogen), 200 ng each of pTarget-SIK2 and pTarget-SIK2 (K49M), together with an expression vector (pTAL-CRE; 200 ng; manufactured by Clontech) in which a luciferase gene is located under the control of CRE, were introduced into precursor fat cells 3T3-L1. Moreover, mSIK2 (S587A) having a destroyed PKA phosphorylated portion, which was predicted to exist in mouse SIK2 domain 3 from the findings regarding rat SIK1, was introduced therein, using oligo DNA represented by SEQ ID NO: 16.
In the thus produced mSIK2 (S587A), serine at position 587 was substituted with alanine with respect to the full-length SIK2. For correction of introduction efficiency, a vector (pRL-SC40; 30 ng; manufactured by Promega) that allows luciferase derived from Renilla to express under an SV40 promoter was co-introduced therein. 16 hours later, the cells were stimulated with forskolin (50 μM) for 6 hours, so as to activate CRE. Thereafter, the cells were recovered, and the expression level of a reporter gene was analyzed using Dual Luciferase Assay kit (manufactured by Promega).
The corrected pTAL-CRE-derived activity was divided by the activity derived from pTAL, so as to obtain a specific activity derived from CRE. […]
(In general: Reporter assays use an easily measured gene product as a stand-in for the process of interest.)

In test [4] the test system is Gal4-CREB(-bZIP). The test is described as follows: Gal4-CREB(-bZIP) luciferase reporter assay. It counts as cell-based. As to conditions: 50 ng/ml. As for the experimental part: (§1) In addition, CREB was introduced into the N-terminal side of the Gal4 protein of budding yeast (Gal4 DNA binding domain; Gal4DB). Using a plasmid wherein a reporter gene (fire fly luciferase) was introduced downstream of a promoter having a sequence consisting of 5 consecutive Gal4-binding sequences, the ability of DB to transcribe CREB without the medium of CRE was analyzed. In the case of a Gal-CREB (full-length) system, since it has a bZIP domain, the transcription was inhibited by SIK2 and TNFα (refer to FIG. 9B).

Test [5] concerns Gal-CREB (full-length). Put plainly: Gal4-CREB (full-length) luciferase reporter assay. To be noted: 50 ng/ml. The test is classed as cell-based. How it is done:
as §1

The subject of test [6] is SIK2 gene. Put plainly: SIK2 mRNA level after incubation with hormones (Northern blot). It counts as cell-based. To be noted: used singly, 2 hours; insulin 1 μg/ml, cAMP 1 mM, dexamethasone 1 μM.
Method: The SIK2 gene was incubated with each of these hormones, and with the mixture consisting of the 3 types of hormones, for 2 hours. Thereafter, the mRNA level of SIK2 was measured. […] The measurement was carried out by the Northern blot analysis using cDNA probes.
Test [7] deals with T2, SIK (Mus musculus, UniProt Q8CFH6).
T2 construct: the full-length cDNA in the protein translation region of SIK2 was amplified by the RT-PCR method; made in house; host or cells: COS-7
T2 sequence (Q8CFH6 whole entry): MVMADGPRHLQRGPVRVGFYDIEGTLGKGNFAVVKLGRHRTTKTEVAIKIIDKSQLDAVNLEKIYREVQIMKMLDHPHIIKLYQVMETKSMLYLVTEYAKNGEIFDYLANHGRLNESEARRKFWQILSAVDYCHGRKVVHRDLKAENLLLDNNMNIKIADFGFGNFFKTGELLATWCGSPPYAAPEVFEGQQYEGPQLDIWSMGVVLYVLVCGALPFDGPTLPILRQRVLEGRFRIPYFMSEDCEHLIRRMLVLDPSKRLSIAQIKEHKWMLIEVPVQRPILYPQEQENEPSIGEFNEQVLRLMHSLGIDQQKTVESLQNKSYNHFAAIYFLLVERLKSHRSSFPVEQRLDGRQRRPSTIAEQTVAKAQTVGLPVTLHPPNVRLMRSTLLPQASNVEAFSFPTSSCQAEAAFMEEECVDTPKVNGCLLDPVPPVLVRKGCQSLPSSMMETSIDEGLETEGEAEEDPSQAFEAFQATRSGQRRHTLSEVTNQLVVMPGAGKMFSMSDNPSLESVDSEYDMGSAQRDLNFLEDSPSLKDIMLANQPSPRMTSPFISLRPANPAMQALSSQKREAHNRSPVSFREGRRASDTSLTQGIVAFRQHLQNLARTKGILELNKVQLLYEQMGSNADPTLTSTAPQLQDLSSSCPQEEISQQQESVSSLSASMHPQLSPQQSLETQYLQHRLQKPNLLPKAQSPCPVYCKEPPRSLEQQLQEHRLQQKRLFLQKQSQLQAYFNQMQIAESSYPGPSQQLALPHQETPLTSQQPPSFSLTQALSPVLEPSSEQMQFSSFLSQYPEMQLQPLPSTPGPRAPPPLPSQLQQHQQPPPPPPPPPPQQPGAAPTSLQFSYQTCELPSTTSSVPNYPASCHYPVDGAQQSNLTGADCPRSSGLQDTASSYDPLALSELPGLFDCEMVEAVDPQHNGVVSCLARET
Put plainly: Phosphorylating activity of GST-SIK2 on Syntide 2 in the presence of a p300 peptide (method of Lin et al.). The test is classed as biochemical. To be noted: GST-SIK2 expressed in COS-7 cells. How it is done: It was studied whether or not a peptide p300 is phosphorylated by SIK when serine at position 89 in p300 is substituted with alanine (S89A). Moreover, it was also studied whether or not the peptide p300 [84-93 (S89A)] can inhibit the phosphorylating activity of SIK. When the activity of SIK2 was measured by the method of Lin et al., a DMSO solution containing 5% DMSO (dimethyl sulfoxide) and staurosporine was added. SIK2 was allowed to express in the form of a GST binding form in COS-7 cells, and it was then purified using GST-Mirospin kit from Amersham Pharmacia.
The left lane and the central lane show the results regarding a synthetic substrate (Syntide 2) phosphorylated by SIK.

The test system of test [8] is CRE-suppressing activity of SIK. Put plainly: CRE activity in cells with PKA and SIK, peptide bound to the GFPC carrier. The test is classed as cell-based. As to conditions: peptide bound to C-terminus of GFP; PKA and SIK present. An excerpt: GFPC is a C-terminus binding-type green fluorescent protein. GFPC is used as a peptide carrier, wherein a peptide of interest binds to the C-terminus of GFP. […] The grey one is CRE activity obtained when both PKA and SIK exist.

[9] abbreviates: 10, 100, 1,000 nM staurosporine.

T1 sequence (Q8CFH6 whole entry): as above

For `C[S+](C)[O-]` [DMSO, dimethyl sulfoxide], the “inhibition of auto-phosphorylating activity and GST-Syntide 2-phosphorylating activity of GST-mSIK2” value in test [1] (single use of DMSO (5% DMSO)) is reported as “approximately 30%”.
With `CN[C@@H]1C[C@H]2O[C@@](C)([C@@H]1OC)n1c3ccccc3c3c4c(c5c6ccccc6n2c5c31)C(=O)NC4` [staurosporine], the “residual phosphorylating activity of SIK2” value in test [1] (1 nM staurosporine in 5% DMSO solution) is “approximately 20%”. In test [1] (10 nM staurosporine), this compound gave an inhibition at 0.01 µM of about 100%. Further, the inhibition at 0.1 µM in test [1] (100 nM staurosporine) is about 100%. Moreover, in test [1] (1, 10, 100 nM), the “concentration dependence of inhibition of phosphorylating activity of SIK2” value was “concentration-dependently inhibited”. In test [2] (10 nM staurosporine, 1 hour), the “reaction of anti-phosphorylation Ser577 antibody with SIK” value was “significantly decreased” and the “reaction of anti-phosphorylation Thr182-Ser186 antibody with SIK” value is recorded as “significantly decreased”. In test [2] (setting [9]), the “reaction of SIK with anti-SIK1 antibody” value is “not significantly decreased” and the “reactivity of antibody binding to SIK1 wherein serine at position 577 is not phosphorylated” value was “increased depending on the concentration of staurosporine”.
Take TNFα: the “effect on activation of CRE due to PKA” value in test [3] is on record as “sufficiently suppressed the activation of CRE due to PKA”. Moreover, the “effect on transcription in Gal4-CREB(-bZIP) system” value in test [4] is reported as “suppressed”. In addition, in test [5], the “effect on transcription in Gal-CREB (full-length) system” value is “inhibited”.
For insulin, the “effect on transcription of the SIK2 gene (mRNA level)” value in test [6] is reported as “promoted the transcription of the SIK2 gene”.
With “p300 [84-93 (S89A)]: peptide p300 residues 84-93 with serine at position 89 substituted with alanine; bound to GFPC carrier in the cell test (LLRSGASPNL)”, the “effect on enzyme activity of SIK (Syntide 2 phosphorylation)” value in test [7] is on record as “inhibits the enzyme activity of SIK”. Besides, in test [8], the “effect on CRE-suppressing activity of SIK in cells” value was “inhibits the CRE-suppressing activity of SIK in cells”.

One may read the inhibition as the drop in the measured response relative to a control, in per cent. The low end stands for a weak effect, the high end for a strong effect.
